Measured values published in the NIST ThermoML archive (doi:10.1021/je3013205).

Assay: xn = mol fraction of the nth substance listed
Details: 101 kPa, Liquid, Vibrating tube method

CC(C)O [propan-2-ol] + NCCO
x1 = 1
Details | mass density [kg/m3]
283.15 K | 794.005
293.15 K | 785.764
303.15 K | 777.284
313.15 K | 768.476
323.15 K | 759.309
333.15 K | 749.679
343.15 K | 739.528

NCCO [2-aminoethan-1-ol] + CO
mass density [kg/m3]
Details | x2 = 0 | x2 = 0.0999 | x2 = 0.2 | x2 = 0.3001 | x2 = 0.4 | x2 = 0.5 | x2 = 0.6001 | x2 = 0.7026 | x2 = 0.7998 | x2 = 0.8999
283.15 K | 1024.11 | 1012.96 | 1000.24 | 985.644 | 969.73 | 951.484 | 930.19 | 904.556 | 875.763 | 841.316
293.15 K | 1016.23 | 1005 | 992.199 | 977.53 | 961.548 | 943.204 | 921.795 | 895.978 | 867.002 | 832.282
303.15 K | 1008.32 | 997.005 | 984.108 | 969.37 | 953.296 | 934.844 | 913.321 | 887.345 | 858.177 | 823.2
313.15 K | 1000.37 | 988.961 | 975.96 | 961.142 | 944.973 | 926.41 | 904.767 | 878.633 | 849.26 | 814.016
323.15 K | 992.364 | 980.886 | 967.788 | 952.855 | 936.722 | 917.891 | 896.116 | 869.812 | 840.244 | 804.724
333.15 K | 984.301 | 972.713 | 959.607 | 944.613 | 928.096 | 909.268 | 887.352 | 860.859 | 831.072 | 795.281

CO [methanol] + NCCOCCO
x1 = 1
Details | mass density [kg/m3]
283.15 K | 801.254
293.15 K | 791.866
303.15 K | 782.43
313.15 K | 772.902
323.15 K | 763.244
333.15 K | 753.389

NCCOCCO [2-(2-aminoethoxy)ethanol] + CC(C)O
mass density [kg/m3]
Details | x2 = 0 | x2 = 0.1002 | x2 = 0.2002 | x2 = 0.2999 | x2 = 0.3998 | x2 = 0.5001 | x2 = 0.6 | x2 = 0.7001 | x2 = 0.7999 | x2 = 0.9
283.15 K | 1063.9 | 1045.45 | 1024.83 | 1002.4 | 978.848 | 953.526 | 926.557 | 896.824 | 864.765 | 830.522
293.15 K | 1055.86 | 1037.41 | 1016.77 | 994.333 | 970.775 | 945.419 | 918.428 | 888.658 | 856.572 | 822.302
303.15 K | 1047.8 | 1029.32 | 1008.68 | 986.21 | 962.634 | 937.23 | 910.206 | 880.385 | 848.24 | 813.893
313.15 K | 1039.73 | 1021.21 | 1000.54 | 978.03 | 954.426 | 928.957 | 901.852 | 871.966 | 839.727 | 805.266
323.15 K | 1031.63 | 1013.07 | 992.342 | 969.77 | 946.127 | 920.579 | 893.378 | 863.375 | 831.011 | 796.354
333.15 K | 1023.46 | 1004.87 | 984.07 | 961.425 | 937.625 | 912.056 | 884.74 | 854.584 | 822.035 | 787.116
343.15 K | 1015.24 | 996.578 | 975.712 | 952.983 | 929.152 | 903.381 | 875.931 | 845.569 | 812.769 | 777.485

CC(C)O [propan-2-ol] + NCCOCCO
x1 = 1
Details | mass density [kg/m3]
283.15 K | 794.005
293.15 K | 785.764
303.15 K | 777.284
313.15 K | 768.476
323.15 K | 759.309
333.15 K | 749.679
343.15 K | 739.528

NCCO [2-aminoethan-1-ol] + CC(C)O
mass density [kg/m3]
Details | x2 = 0 | x2 = 0.1001 | x2 = 0.1999 | x2 = 0.3002 | x2 = 0.4001 | x2 = 0.5001 | x2 = 0.5999 | x2 = 0.7 | x2 = 0.8002 | x2 = 0.8999
283.15 K | 1024.11 | 999.024 | 974.32 | 949.806 | 925.587 | 902.006 | 879.054 | 856.17 | 834.572 | 813.792
293.15 K | 1016.23 | 990.993 | 966.334 | 941.791 | 917.446 | 893.95 | 870.943 | 848.018 | 826.391 | 805.582
303.15 K | 1008.32 | 982.903 | 958.311 | 933.723 | 909.315 | 885.794 | 862.727 | 839.735 | 818.066 | 797.19
313.15 K | 1000.37 | 974.928 | 950.234 | 925.597 | 901.039 | 877.533 | 854.388 | 831.308 | 809.555 | 788.57
323.15 K | 992.364 | 966.92 | 942.073 | 917.361 | 892.673 | 869.138 | 845.897 | 822.707 | 800.81 | 779.665
333.15 K | 984.301 | 958.72 | 933.821 | 909.018 | 884.471 | 860.597 | 837.216 | 813.881 | 791.784 | 770.393
343.15 K | 976.153 | 950.596 | 925.458 | 900.544 | 875.887 | 851.867 | 828.323 | 804.773 | 782.457 | 760.722

CO [methanol] + NCCO
x1 = 1
Details | mass density [kg/m3]
283.15 K | 801.254
293.15 K | 791.866
303.15 K | 782.43
313.15 K | 772.902
323.15 K | 763.244
333.15 K | 753.389

NCCOCCO [2-(2-aminoethoxy)ethanol] + CO
mass density [kg/m3]
Details | x2 = 0 | x2 = 0.0999 | x2 = 0.1999 | x2 = 0.3001 | x2 = 0.4 | x2 = 0.5 | x2 = 0.6002 | x2 = 0.6999 | x2 = 0.8 | x2 = 0.9001
283.15 K | 1063.9 | 1055.89 | 1046 | 1034.44 | 1019.81 | 1002.23 | 980.617 | 953.558 | 916.98 | 868.243
293.15 K | 1055.86 | 1047.82 | 1037.87 | 1026.25 | 1011.56 | 993.898 | 972.194 | 945.032 | 908.292 | 859.298
303.15 K | 1047.8 | 1039.72 | 1029.71 | 1018.04 | 1003.27 | 985.526 | 963.722 | 936.443 | 899.545 | 850.287
313.15 K | 1039.73 | 1031.59 | 1021.52 | 1009.78 | 995.032 | 977.101 | 955.185 | 927.795 | 890.727 | 841.205
323.15 K | 1031.63 | 1023.41 | 1013.29 | 1001.48 | 986.54 | 968.618 | 946.586 | 919.061 | 881.797 | 832.01
333.15 K | 1023.46 | 1015.19 | 1004.99 | 993.102 | 978.075 | 960.052 | 937.892 | 910.228 | 872.764 | 822.672
